From PubChem BioAssay (NCI)
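Method: 48-hour compound exposure of cells in 96-well plates, five concentrations, linear interpolation of endpoints. Definition used: TGI = concentration required for complete inhibition of growth.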

How the values were obtained:
Test in all cases: NCI tumour cell line growth inhibition, 48 h
[1] = tested on: MDA-MB-231 breast
[2] = tested on: OVCAR-8 ovarian
[3] = tested on: NCI-H226 lung
[4] = tested on: U251 CNS
[5] = tested on: HL-60(TB) leukemia
[6] = tested on: T-47D breast
[7] = tested on: MCF7 breast
[8] = tested on: ACHN renal
[9] = tested on: SF-295 CNS
[10] = tested on: NCI/ADR-RES ovarian
[11] = tested on: HCT-116 colon
[12] = tested on: SNB-19 CNS
[13] = tested on: KM12 colon
[14] = tested on: HOP-92 NSCLC
[15] = tested on: CCRF-CEM leukemia
[16] = tested on: MDA-MB-435
[17] = tested on: MOLT-4 leukemia
[18] = tested on: SN12C renal
[19] = tested on: NCI-H522 lung
[20] = tested on: BT-549 breast
[21] = tested on: SR leukemia
[22] = tested on: HOP-62 NSCLC
[23] = tested on: M14 melanoma
[24] = tested on: PC-3 prostate
[25] = tested on: SNB-75 CNS
[26] = tested on: MDA-N
[27] = tested on: SK-MEL-5 melanoma
[28] = tested on: OVCAR-5 ovarian
[29] = tested on: A549 NSCLC
[30] = tested on: A498 renal
[31] = tested on: EKVX NSCLC
[32] = tested on: OVCAR-4 ovarian
[33] = tested on: NCI-H23 lung
[34] = tested on: SF-268 CNS
[35] = tested on: 786-0 renal
[36] = tested on: COLO 205 colon
[37] = tested on: MALME-3M melanoma
[38] = tested on: SK-OV-3 ovarian
[39] = tested on: OVCAR-3 ovarian
[40] = tested on: HS 578T breast
[41] = tested on: UACC-62 melanoma
[42] = tested on: SK-MEL-2 melanoma
[43] = tested on: RPMI-8226 leukemia
[44] = tested on: LOX IMVI melanoma
[45] = tested on: HCT-15 colon
[46] = tested on: TK-10 renal
[47] = tested on: HT29 colon
[48] = tested on: SW-620 colon
[49] = tested on: SK-MEL-28 melanoma
[50] = tested on: UACC-257 melanoma
[51] = tested on: DU-145 prostate
[52] = tested on: K-562 leukemia
[53] = tested on: UO-31 renal
[54] = tested on: IGROV1 ovarian
[55] = tested on: CAKI-1 renal
[56] = tested on: RXF 393 renal
[57] = tested on: NCI-H460 lung
[58] = tested on: SF-539 CNS
[59] = tested on: HCC-2998 colon

CC(C)(C)c1cc(Br)c(O)c(CN(Cc2cc(C(C)(C)C)cc(Br)c2O)C2CCCCC2)c1
TGI [1]: 28.2 µM
TGI [2]: 28.3 µM
TGI [3]: 29.1 µM
TGI [4]: 26.8 µM
TGI [5]: 35.8 µM
TGI [6]: 21.4 µM
TGI [7]: 26.8 µM
TGI [8]: 28.1 µM
TGI [9]: 25.3 µM
TGI [10]: 24.3 µM
TGI [11]: 25 µM
TGI [12]: 27.1 µM
TGI [13]: 29.4 µM
TGI [14]: 28.8 µM
TGI [15]: 26.6 µM
TGI [16]: 27.4 µM
TGI [17]: 26 µM
TGI [18]: 28 µM
TGI [19]: 25.1 µM
TGI [20]: 29.2 µM
TGI [21]: 25.6 µM
TGI [22]: 28.5 µM
TGI [23]: 25.5 µM
TGI [24]: 28.1 µM
TGI [25]: 20.9 µM
TGI [26]: 27.6 µM
TGI [27]: 22.8 µM
TGI [28]: 29.1 µM
TGI [29]: 27.1 µM
TGI [30]: 26.3 µM
TGI [31]: 27.9 µM
TGI [32]: 22.3 µM
TGI [33]: 26.3 µM
TGI [34]: 26.4 µM
TGI [35]: 27.7 µM
TGI [36]: 23.3 µM
TGI [37]: 24.1 µM
TGI [38]: 29.2 µM
TGI [39]: 24.2 µM
TGI [40]: 28.4 µM
TGI [41]: 25.3 µM
TGI [42]: 25.8 µM
TGI [43]: 27.9 µM
TGI [44]: 29.8 µM
TGI [45]: 25.4 µM
TGI [46]: 29.2 µM
TGI [47]: 19.3 µM
TGI [48]: 25.8 µM
TGI [49]: 28.9 µM
TGI [50]: 16.5 µM
TGI [51]: 26.8 µM
TGI [52]: 28.3 µM
TGI [53]: 27.4 µM
TGI [54]: 28.7 µM
TGI [55]: 24.7 µM
TGI [56]: 22.6 µM

C(=Nc1ccc(-c2nc3ccccc3[nH]2)cc1)c1cccs1
TGI [1]: > 100 µM
TGI [2]: > 100 µM
TGI [3]: > 100 µM
TGI [4]: > 100 µM
TGI [5]: > 100 µM
TGI [6]: > 100 µM
TGI [7]: > 100 µM
TGI [8]: > 100 µM
TGI [9]: > 100 µM
TGI [10]: > 100 µM
TGI [11]: > 100 µM
TGI [12]: > 100 µM
TGI [13]: > 100 µM
TGI [57]: > 100 µM
TGI [14]: 98.2 µM
TGI [15]: > 100 µM
TGI [16]: > 100 µM
TGI [17]: > 100 µM
TGI [18]: > 100 µM
TGI [19]: > 100 µM
TGI [20]: 86.4 µM
TGI [21]: > 100 µM
TGI [22]: > 100 µM
TGI [23]: > 100 µM
TGI [24]: > 100 µM
TGI [25]: > 100 µM
TGI [26]: > 100 µM
TGI [27]: > 100 µM
TGI [28]: > 100 µM
TGI [29]: > 100 µM
TGI [30]: > 100 µM
TGI [31]: > 100 µM
TGI [32]: > 100 µM
TGI [33]: > 100 µM
TGI [34]: > 100 µM
TGI [35]: > 100 µM
TGI [36]: > 100 µM
TGI [58]: > 100 µM
TGI [37]: > 100 µM
TGI [38]: > 100 µM
TGI [39]: > 100 µM
TGI [40]: > 100 µM
TGI [42]: > 100 µM
TGI [43]: > 100 µM
TGI [44]: > 100 µM
TGI [45]: > 100 µM
TGI [46]: > 100 µM
TGI [47]: > 100 µM
TGI [48]: > 100 µM
TGI [49]: > 100 µM
TGI [50]: > 100 µM
TGI [51]: > 100 µM
TGI [52]: > 100 µM
TGI [53]: > 100 µM
TGI [54]: > 100 µM
TGI [55]: > 100 µM
TGI [56]: > 100 µM

O=C(O)Cc1cccc2c(=O)c3ccccc3oc12
TGI [1]: > 100 µM
TGI [2]: > 100 µM
TGI [3]: > 100 µM
TGI [4]: > 100 µM
TGI [5]: > 100 µM
TGI [6]: 61.7 µM
TGI [7]: > 100 µM
TGI [8]: > 100 µM
TGI [9]: > 100 µM
TGI [10]: > 100 µM
TGI [11]: > 100 µM
TGI [12]: > 100 µM
TGI [13]: > 100 µM
TGI [57]: > 100 µM
TGI [14]: > 100 µM
TGI [15]: > 100 µM
TGI [16]: > 100 µM
TGI [17]: > 100 µM
TGI [18]: > 100 µM
TGI [19]: > 100 µM
TGI [20]: > 100 µM
TGI [21]: > 100 µM
TGI [22]: > 100 µM
TGI [23]: > 100 µM
TGI [24]: > 100 µM
TGI [26]: > 100 µM
TGI [27]: > 100 µM
TGI [29]: > 100 µM
TGI [30]: > 100 µM
TGI [31]: > 100 µM
TGI [32]: > 100 µM
TGI [33]: > 100 µM
TGI [34]: > 100 µM
TGI [35]: > 100 µM
TGI [36]: > 100 µM
TGI [58]: > 100 µM
TGI [37]: > 100 µM
TGI [38]: 41.9 µM
TGI [39]: > 100 µM
TGI [40]: > 100 µM
TGI [41]: 77.2 µM
TGI [42]: 56.5 µM
TGI [43]: > 100 µM
TGI [44]: > 100 µM
TGI [45]: > 100 µM
TGI [46]: > 100 µM
TGI [47]: > 100 µM
TGI [48]: > 100 µM
TGI [59]: 46 µM
TGI [49]: > 100 µM
TGI [50]: > 100 µM
TGI [51]: > 100 µM
TGI [52]: > 100 µM
TGI [53]: > 100 µM
TGI [54]: > 100 µM
TGI [55]: > 100 µM
